Read-outs that look alike come from different tables or passages of the source.
Assays:
Nav 1.7 = Nav 1.7 (Homo sapiens (Human), UniProt Q15858); assay: in-vitro Nav 1.7 PX data; assay type: cell-based
Nav 1.5 = Nav 1.5 (Homo sapiens (Human), UniProt Q14524); assay: in-vitro Nav 1.5 PX data; conditions: read-out: Nav 1.5 PX IC50
Nav 1.5, sequence (Q14524 whole entry): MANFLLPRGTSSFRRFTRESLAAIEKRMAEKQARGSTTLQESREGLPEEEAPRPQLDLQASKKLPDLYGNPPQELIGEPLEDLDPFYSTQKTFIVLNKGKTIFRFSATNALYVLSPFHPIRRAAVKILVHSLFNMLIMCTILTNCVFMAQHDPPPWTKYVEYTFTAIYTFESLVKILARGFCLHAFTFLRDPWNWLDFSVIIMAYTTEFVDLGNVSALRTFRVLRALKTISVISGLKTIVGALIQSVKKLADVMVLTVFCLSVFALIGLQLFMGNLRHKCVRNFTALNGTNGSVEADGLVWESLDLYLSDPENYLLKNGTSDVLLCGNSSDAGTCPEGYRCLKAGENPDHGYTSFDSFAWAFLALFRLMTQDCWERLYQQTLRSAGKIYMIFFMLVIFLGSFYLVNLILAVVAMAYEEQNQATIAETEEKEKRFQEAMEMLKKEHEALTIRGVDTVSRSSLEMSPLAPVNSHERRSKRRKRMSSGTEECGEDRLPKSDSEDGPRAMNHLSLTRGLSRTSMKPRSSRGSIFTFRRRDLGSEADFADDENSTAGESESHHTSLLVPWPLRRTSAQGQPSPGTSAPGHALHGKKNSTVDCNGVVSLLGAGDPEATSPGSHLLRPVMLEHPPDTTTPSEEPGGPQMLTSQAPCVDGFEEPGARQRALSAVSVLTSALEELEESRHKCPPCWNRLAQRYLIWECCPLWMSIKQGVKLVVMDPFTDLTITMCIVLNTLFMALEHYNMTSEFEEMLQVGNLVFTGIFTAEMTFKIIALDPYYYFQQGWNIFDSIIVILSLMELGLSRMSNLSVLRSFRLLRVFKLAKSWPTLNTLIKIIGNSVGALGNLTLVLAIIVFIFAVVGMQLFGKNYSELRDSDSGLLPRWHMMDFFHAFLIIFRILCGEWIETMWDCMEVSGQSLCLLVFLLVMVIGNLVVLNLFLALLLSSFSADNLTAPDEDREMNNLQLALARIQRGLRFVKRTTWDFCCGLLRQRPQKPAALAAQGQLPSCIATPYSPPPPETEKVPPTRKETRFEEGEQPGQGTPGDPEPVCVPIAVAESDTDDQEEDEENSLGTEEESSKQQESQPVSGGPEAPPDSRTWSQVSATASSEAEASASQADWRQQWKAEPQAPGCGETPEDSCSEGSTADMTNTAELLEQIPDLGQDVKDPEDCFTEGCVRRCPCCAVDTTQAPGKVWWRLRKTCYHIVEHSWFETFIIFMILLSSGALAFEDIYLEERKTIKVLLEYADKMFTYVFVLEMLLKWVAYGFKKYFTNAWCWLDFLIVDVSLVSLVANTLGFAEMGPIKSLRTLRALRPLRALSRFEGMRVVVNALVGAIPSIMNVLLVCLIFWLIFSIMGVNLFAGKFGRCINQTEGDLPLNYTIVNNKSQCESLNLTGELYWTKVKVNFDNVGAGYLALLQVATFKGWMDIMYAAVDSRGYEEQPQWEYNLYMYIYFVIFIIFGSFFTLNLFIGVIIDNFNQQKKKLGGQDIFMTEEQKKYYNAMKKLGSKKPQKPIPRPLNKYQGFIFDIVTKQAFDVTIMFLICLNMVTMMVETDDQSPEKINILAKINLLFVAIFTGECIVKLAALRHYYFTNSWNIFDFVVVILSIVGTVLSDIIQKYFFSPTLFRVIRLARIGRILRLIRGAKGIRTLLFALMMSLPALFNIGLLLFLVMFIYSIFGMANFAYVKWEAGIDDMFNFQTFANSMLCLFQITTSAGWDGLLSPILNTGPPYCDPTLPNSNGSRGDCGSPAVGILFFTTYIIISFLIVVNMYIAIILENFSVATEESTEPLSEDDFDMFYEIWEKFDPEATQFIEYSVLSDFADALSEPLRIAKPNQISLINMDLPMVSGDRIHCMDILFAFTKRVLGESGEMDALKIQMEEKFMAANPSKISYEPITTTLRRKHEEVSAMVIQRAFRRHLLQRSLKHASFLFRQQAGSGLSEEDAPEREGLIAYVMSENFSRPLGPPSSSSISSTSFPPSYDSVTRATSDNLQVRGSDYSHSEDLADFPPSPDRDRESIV

Nav 1.7, sequence (Q15858 whole entry): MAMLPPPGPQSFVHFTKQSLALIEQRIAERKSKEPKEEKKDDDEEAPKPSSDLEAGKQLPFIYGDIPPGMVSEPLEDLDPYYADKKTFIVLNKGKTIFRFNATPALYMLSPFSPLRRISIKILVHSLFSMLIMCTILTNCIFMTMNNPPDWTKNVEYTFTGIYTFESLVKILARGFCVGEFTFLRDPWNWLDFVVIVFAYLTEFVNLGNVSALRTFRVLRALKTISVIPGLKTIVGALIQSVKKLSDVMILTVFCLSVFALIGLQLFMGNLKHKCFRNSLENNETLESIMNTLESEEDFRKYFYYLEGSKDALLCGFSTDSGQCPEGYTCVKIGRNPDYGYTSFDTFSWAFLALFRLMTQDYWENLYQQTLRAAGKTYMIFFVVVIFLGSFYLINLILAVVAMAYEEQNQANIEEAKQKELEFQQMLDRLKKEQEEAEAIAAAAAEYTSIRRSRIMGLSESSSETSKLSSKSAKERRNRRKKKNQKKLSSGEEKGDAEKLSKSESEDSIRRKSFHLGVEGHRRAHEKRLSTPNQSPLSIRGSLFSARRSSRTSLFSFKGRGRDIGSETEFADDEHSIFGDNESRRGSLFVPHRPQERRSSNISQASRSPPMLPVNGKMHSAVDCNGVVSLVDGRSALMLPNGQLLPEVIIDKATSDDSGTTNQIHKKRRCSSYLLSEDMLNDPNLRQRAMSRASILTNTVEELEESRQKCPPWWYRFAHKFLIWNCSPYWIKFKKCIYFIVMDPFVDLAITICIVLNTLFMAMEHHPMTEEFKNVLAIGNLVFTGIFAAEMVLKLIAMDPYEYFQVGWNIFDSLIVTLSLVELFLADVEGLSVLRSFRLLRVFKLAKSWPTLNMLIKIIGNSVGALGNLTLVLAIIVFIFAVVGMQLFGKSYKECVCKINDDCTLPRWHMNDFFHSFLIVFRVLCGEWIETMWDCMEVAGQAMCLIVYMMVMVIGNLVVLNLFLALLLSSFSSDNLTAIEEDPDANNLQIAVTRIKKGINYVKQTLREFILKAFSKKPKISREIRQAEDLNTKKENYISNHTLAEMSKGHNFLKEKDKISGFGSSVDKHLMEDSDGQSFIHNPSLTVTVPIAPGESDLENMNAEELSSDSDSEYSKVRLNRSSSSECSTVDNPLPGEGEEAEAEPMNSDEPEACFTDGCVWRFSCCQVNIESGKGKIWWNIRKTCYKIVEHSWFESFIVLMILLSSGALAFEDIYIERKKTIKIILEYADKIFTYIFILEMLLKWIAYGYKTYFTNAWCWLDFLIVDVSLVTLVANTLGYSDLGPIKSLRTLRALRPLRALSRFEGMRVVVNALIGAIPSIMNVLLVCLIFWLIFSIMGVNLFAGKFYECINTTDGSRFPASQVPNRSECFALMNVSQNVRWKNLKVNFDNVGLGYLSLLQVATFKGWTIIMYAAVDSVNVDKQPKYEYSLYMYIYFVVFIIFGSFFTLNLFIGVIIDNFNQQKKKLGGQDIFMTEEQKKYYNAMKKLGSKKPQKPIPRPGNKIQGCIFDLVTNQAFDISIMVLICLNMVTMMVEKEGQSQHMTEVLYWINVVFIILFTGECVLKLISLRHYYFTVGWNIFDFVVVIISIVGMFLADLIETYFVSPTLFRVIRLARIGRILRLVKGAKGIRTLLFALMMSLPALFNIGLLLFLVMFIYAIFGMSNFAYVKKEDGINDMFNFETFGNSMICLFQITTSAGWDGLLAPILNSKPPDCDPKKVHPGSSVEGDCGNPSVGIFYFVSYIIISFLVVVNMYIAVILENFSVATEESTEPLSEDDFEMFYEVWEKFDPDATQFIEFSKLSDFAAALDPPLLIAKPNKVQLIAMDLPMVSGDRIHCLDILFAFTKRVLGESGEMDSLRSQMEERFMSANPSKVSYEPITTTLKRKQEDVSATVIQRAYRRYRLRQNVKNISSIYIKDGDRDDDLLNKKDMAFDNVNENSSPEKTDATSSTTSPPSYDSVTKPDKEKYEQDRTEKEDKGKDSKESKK

COc1cc(-c2ccc(Cl)c(C)c2)c(C#N)cc1-c1nccc2cc(S(=O)(=O)Nc3ccon3)ccc12 [Example 82, 1-(4′-chloro-2-cyano-5-methoxy-3′-methyl-4-biphenylyl)-N-3-isoxazolyl-6-isoquinolinesulfonamide]
IC50 (Nav 1.7; PatchXpress (PX), in vitro): 26.1 nM | IC50 (Nav 1.5; PatchXpress (PX), in vitro): > 10000 nM

COc1cc(-c2ccc(F)c(Cl)c2)c(C#N)cc1-c1nccc2cc(S(=O)(=O)Nc3ccon3)ccc12 [Example 84, 1-(3′-chloro-2-cyano-4′-fluoro-5-methoxy-4-biphenylyl)-N-3-isoxazolyl-6-isoquinolinesulfonamide]
IC50 (Nav 1.7; PatchXpress (PX), in vitro): 14.7 nM | IC50 (Nav 1.5; PatchXpress (PX), in vitro): > 10000 nM

COc1cc(-c2ccc(F)c(C)c2)c(C#N)cc1-c1nccc2cc(S(=O)(=O)Nc3ccon3)ccc12 [Example 85, 1-(2-cyano-4′-fluoro-5-methoxy-3′-methyl-4-biphenylyl)-N-3-isoxazolyl-6-isoquinolinesulfonamide]
IC50 (Nav 1.7; PatchXpress (PX), in vitro): 28.8 nM | IC50 (Nav 1.5; PatchXpress (PX), in vitro): > 10000 nM

COc1cc(-c2cc(F)cc(Cl)c2)c(C#N)cc1-c1nccc2cc(S(=O)(=O)Nc3ccon3)ccc12 [Example 86, 1-(3′-chloro-2-cyano-5′-fluoro-5-methoxy-4-biphenylyl)-N-3-isoxazolyl-6-isoquinolinesulfonamide]
IC50 (Nav 1.7; PatchXpress (PX), in vitro): 24.4 nM | IC50 (Nav 1.5; PatchXpress (PX), in vitro): > 10000 nM

COc1cc(-c2ccc(F)cc2)c(C#N)cc1-c1nccc2cc(S(=O)(=O)Nc3ccon3)ccc12 [Example 106, 1-(2-cyano-4′-fluoro-5-methoxy-4-biphenylyl)-N-3-isoxazolyl-6-isoquinolinesulfonamide]
IC50 (Nav 1.7; in-vitro PX data): 62.5 nM | IC50 (Nav 1.5; in-vitro PX data): > 10000 nM

COc1cc(-c2cc(F)cc(F)c2)c(C#N)cc1-c1nccc2cc(S(=O)(=O)Nc3ncccn3)ccc12 [Example 107, 1-(2-cyano-3′,5′-difluoro-5-methoxy-4-biphenylyl)-N-2-pyrimidinyl-6-isoquinolinesulfonamide]
IC50 (Nav 1.7; in-vitro PX data): 255 nM | IC50 (Nav 1.5; in-vitro PX data): > 10000 nM

COc1cc(Cl)c(-c2cccc(F)c2)cc1-c1nccc2cc(S(=O)(=O)Nc3nncs3)ccc12 [Example 110, 1-(6-chloro-3′-fluoro-4-methoxy-3-biphenylyl)-N-1,3,4-thiadiazol-2-yl-6-isoquinolinesulfonamide]
IC50 (Nav 1.7; in-vitro PX data): 109 nM | IC50 (Nav 1.5; in-vitro PX data): > 10000 nM

COc1cc(-c2cccc(Cl)c2)c(C#N)cc1-c1nccc2cc(S(=O)(=O)Nc3ccon3)ccc12 [Example 111, 1-(3′-chloro-2-cyano-5-methoxy-4-biphenylyl)-N-3-isoxazolyl-6-isoquinolinesulfonamide]
IC50 (Nav 1.7; in-vitro PX data): 21.8 nM | IC50 (Nav 1.5; in-vitro PX data): > 10000 nM

COc1cc(-c2cccc(C)c2)c(C#N)cc1-c1nccc2cc(S(=O)(=O)Nc3ccon3)ccc12 [Example 112, 1-(2-cyano-5-methoxy-3′-methyl-4-biphenylyl)-N-3-isoxazolyl-6-isoquinolinesulfonamide]
IC50 (Nav 1.7; in-vitro PX data): 39.5 nM | IC50 (Nav 1.5; in-vitro PX data): > 10000 nM

COc1cc(-c2cccc(F)c2)c(Cl)cc1-c1nncc2cc(S(=O)(=O)Nc3ncccn3)ccc12 [Example 113, 1-(2-chloro-3′-fluoro-5-methoxy-4-biphenylyl)-N-2-pyrimidinyl-6-phthalazinesulfonamide]
IC50 (Nav 1.7; in-vitro PX data): 95 nM | IC50 (Nav 1.5; in-vitro PX data): > 10000 nM

COc1cc(-c2cc(C)cc(Cl)c2)c(C#N)cc1-c1nccc2cc(S(=O)(=O)Nc3ccon3)ccc12 [Example 114, 1-(3′-chloro-2-cyano-5-methoxy-5′-methyl-4-biphenylyl)-N-3-isoxazolyl-6-isoquinolinesulfonamide]
IC50 (Nav 1.7; in-vitro PX data): 28.8 nM | IC50 (Nav 1.5; in-vitro PX data): > 10000 nM

COc1cc(-c2cccc(C(F)(F)F)c2)c(F)cc1-c1nccc2cc(S(=O)(=O)Nc3ccon3)ccc12 [Example 115, 1-(2-fluoro-5-methoxy-3′-(trifluoromethyl)-4-biphenylyl)-N-3-isoxazolyl-6-isoquinolinesulfonamide]
IC50 (Nav 1.7; in-vitro PX data): 13.5 nM | IC50 (Nav 1.5; in-vitro PX data): > 10000 nM

COc1cc(-c2cccc(C(F)(F)F)c2)c(C#N)cc1-c1nccc2cc(S(=O)(=O)Nc3ncon3)ccc12 [Example 118, 1-(2-cyano-5-methoxy-3′-(trifluoromethyl)-4-biphenylyl)-N-1,2,4-oxadiazol-3-yl-6-isoquinolinesulfonamide]
IC50 (Nav 1.7; in-vitro PX data): 21 nM | IC50 (Nav 1.5; in-vitro PX data): > 10000 nM

COc1cc(-c2cccc(F)c2)c(Cl)cc1-c1nccc2cc(S(=O)(=O)Nc3cccnn3)ccc12 [Example 120, 1-(2-chloro-3′-fluoro-5-methoxy-4-biphenylyl)-N-3-pyridazinyl-6-isoquinolinesulfonamide]
IC50 (Nav 1.7; in-vitro PX data): 141 nM | IC50 (Nav 1.5; in-vitro PX data): > 10000 nM

COc1cc(Cl)c(-c2cccc(F)c2)cc1-c1nccc2cc(S(=O)(=O)Nc3ccon3)ccc12 [Example 121, 1-(6-chloro-3′-fluoro-4-methoxy-3-biphenylyl)-N-3-isoxazolyl-6-isoquinolinesulfonamide]
IC50 (Nav 1.7; in-vitro PX data): 91.7 nM | IC50 (Nav 1.5; in-vitro PX data): > 10000 nM

COc1cc(Cl)c(-c2cccc(F)c2)cc1-c1nccc2cc(S(=O)(=O)Nc3ncccn3)ccc12 [Example 122, 1-(6-chloro-3′-fluoro-4-methoxy-3-biphenylyl)-N-2-pyrimidinyl-6-isoquinolinesulfonamide]
IC50 (Nav 1.7; in-vitro PX data): 112 nM | IC50 (Nav 1.5; in-vitro PX data): > 10000 nM

COc1cc(-c2cc(F)cc(F)c2)ccc1-c1nccc2cc(S(=O)(=O)Nc3ncccn3)ccc12 [Example 123, 1-(3′,5′-difluoro-3-methoxy-4-biphenylyl)-N-2-pyrimidinyl-6-isoquinolinesulfonamide]
IC50 (Nav 1.7; in-vitro PX data): 171 nM | IC50 (Nav 1.5; in-vitro PX data): > 10000 nM

COc1cc(NS(=O)(=O)c2ccc3c(-c4ccc(-c5cc(F)cc(F)c5)cc4OC)nccc3c2)ncn1 [Example 125, 1-(3′,5′-difluoro-3-methoxy-4-biphenylyl)-N-(6-methoxy-4-pyrimidinyl)-6-isoquinolinesulfonamide]
IC50 (Nav 1.7; in-vitro PX data): 497 nM | IC50 (Nav 1.5; in-vitro PX data): > 10000 nM

COc1cc(-c2cc(F)cc(F)c2)ccc1-c1nccc2cc(S(=O)(=O)Nc3ncon3)ccc12 [Example 127, 1-(3′,5′-difluoro-3-methoxy-4-biphenylyl)-N-1,2,4-oxadiazol-3-yl-6-isoquinolinesulfonamide]
IC50 (Nav 1.7; in-vitro PX data): 106 nM | IC50 (Nav 1.5; in-vitro PX data): > 10000 nM

COc1cc(-c2cc(F)cc(F)c2)ccc1-c1nccc2cc(S(=O)(=O)Nc3cnsn3)ccc12 [Example 129, 1-(3′,5′-difluoro-3-methoxy-4-biphenylyl)-N-1,2,5-thiadiazol-3-yl-6-isoquinolinesulfonamide]
IC50 (Nav 1.7; in-vitro PX data): 428 nM | IC50 (Nav 1.5; in-vitro PX data): > 10000 nM

COc1cc(-c2cc(F)cc(F)c2)ccc1-c1nccc2cc(S(=O)(=O)Nc3nc(C)ns3)ccc12 [Example 130, 1-(3′,5′-difluoro-3-methoxy-4-biphenylyl)-N-(3-methyl-1,2,4-thiadiazol-5-yl)-6-isoquinolinesulfonamide]
IC50 (Nav 1.7; in-vitro PX data): 1040 nM | IC50 (Nav 1.5; in-vitro PX data): > 30000 nM

COc1cc(-c2cc(F)cc(F)c2)ccc1-c1nccc2cc(S(=O)(=O)Nc3ncc(F)cn3)ccc12 [Example 135, 1-(3′,5′-difluoro-3-methoxy-4-biphenylyl)-N-(5-fluoro-2-pyrimidinyl)-6-isoquinolinesulfonamide]
IC50 (Nav 1.7; in-vitro PX data): 378 nM | IC50 (Nav 1.5; in-vitro PX data): > 10000 nM

COc1cc(-c2cc(F)cc(F)c2)ccc1-c1nccc2cc(S(=O)(=O)Nc3ncco3)ccc12 [Example 137, 1-(3′,5′-difluoro-3-methoxy-4-biphenylyl)-N-1,3-oxazol-2-yl-6-isoquinolinesulfonamide]
IC50 (Nav 1.7; in-vitro PX data): 360 nM | IC50 (Nav 1.5; in-vitro PX data): > 10000 nM

COc1cc(-c2cc(F)cc(F)c2)ccc1-c1nccc2cc(S(=O)(=O)Nc3cccnn3)ccc12 [Example 138, 1-(3′,5′-difluoro-3-methoxy-4-biphenylyl)-N-3-pyridazinyl-6-isoquinolinesulfonamide]
IC50 (Nav 1.7; in-vitro PX data): 251 nM | IC50 (Nav 1.5; in-vitro PX data): > 10000 nM

COc1cc(-c2cc(F)cc(F)c2)ccc1-c1nccc2cc(S(=O)(=O)Nc3ccon3)ccc12 [Example 142, 1-(3′,5′-difluoro-3-methoxy-4-biphenylyl)-N-3-isoxazolyl-6-isoquinolinesulfonamide]
IC50 (Nav 1.7; in-vitro Nav 1.7 PX data): 168 nM | IC50 (Nav 1.5; in-vitro Nav 1.5 PX data): > 30000 nM

COc1cc(-c2cccc(F)c2)c(C#N)cc1-c1nccc2cc(S(=O)(=O)Nc3ccncn3)ccc12 [Example 144, 1-(2-cyano-3′-fluoro-5-methoxy-4-biphenylyl)-N-4-pyrimidinyl-6-isoquinolinesulfonamide]
IC50 (Nav 1.7; in-vitro Nav 1.7 PX data): 106 nM | IC50 (Nav 1.5; in-vitro Nav 1.5 PX data): > 10000 nM

O=S(=O)(Nc1ccon1)c1ccc2c(-c3ccc(-c4cccc(C(F)(F)F)c4)cc3CO)nccc2c1 [Example 146, 1-(3-(hydroxymethyl)-3′-(trifluoromethyl)-4-biphenylyl)-N-3-isoxazolyl-6-isoquinolinesulfonamide]
IC50 (Nav 1.7; in-vitro Nav 1.7 PX data): 120 nM | IC50 (Nav 1.5; in-vitro Nav 1.5 PX data): > 10000 nM

COc1ccc(-c2ccc(C(F)(F)F)cc2)cc1-c1nccc2cc(S(=O)(=O)Nc3ccncn3)ccc12 [Example 147, 1-(4-methoxy-4′-(trifluoromethyl)-3-biphenylyl)-N-4-pyrimidinyl-6-isoquinolinesulfonamide]
IC50 (Nav 1.7; in-vitro Nav 1.7 PX data): 71.9 nM | IC50 (Nav 1.5; in-vitro Nav 1.5 PX data): > 10000 nM

Cc1ccc(OCc2ccccc2)cc1-c1nccc2cc(S(=O)(=O)Nc3ccncn3)ccc12 [Example 151, 1-(5-(benzyloxy)-2-methylphenyl)-N-4-pyrimidinyl-6-isoquinolinesulfonamide]
IC50 (Nav 1.7; in-vitro Nav 1.7 PX data): 424 nM | IC50 (Nav 1.5; in-vitro Nav 1.5 PX data): > 30000 nM

COc1cc(-c2ccc(Cl)c(F)c2)c(C#N)cc1-c1nccc2cc(S(=O)(=O)Nc3ccncn3)ccc12 [Example 154, 1-(4′-chloro-2-cyano-3′-fluoro-5-methoxy-4-biphenylyl)-N-4-pyrimidinyl-6-isoquinolinesulfonamide]
IC50 (Nav 1.7; in-vitro Nav 1.7 PX data): 43.5 nM | IC50 (Nav 1.5; in-vitro Nav 1.5 PX data): > 30000 nM

COc1cc(-c2ccc(F)c(C)c2)c(C#N)cc1-c1nccc2cc(S(=O)(=O)Nc3ccncn3)ccc12 [Example 155, 1-(2-cyano-4′-fluoro-5-methoxy-3′-methyl-4-biphenylyl)-N-4-pyrimidinyl-6-isoquinolinesulfonamide]
IC50 (Nav 1.7; in-vitro Nav 1.7 PX data): 45.5 nM | IC50 (Nav 1.5; in-vitro Nav 1.5 PX data): 23400 nM

COc1cc(-c2cccc(C)c2)c(C#N)cc1-c1nccc2cc(S(=O)(=O)Nc3ccncn3)ccc12 [Example 156, 1-(2-cyano-5-methoxy-3′-methyl-4-biphenylyl)-N-4-pyrimidinyl-6-isoquinolinesulfonamide]
IC50 (Nav 1.7; in-vitro Nav 1.7 PX data): 47.3 nM | IC50 (Nav 1.5; in-vitro Nav 1.5 PX data): 30800 nM

Source: patent publication US9776995B2, “Bicyclic sulfonamide compounds as sodium channel inhibitors” (AMGEN INC., priority 2013, dated 2017)
